In ChEMBL document CHEMBL1201862, “PubChem BioAssay data set” (2004):
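These data come from cells grown in 96-well plates and exposed to compound for 48 hours at five concentrations. Here, GI50 denotes the concentration required for 50% inhibition of growth.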 Calls of active or inactive are those of the source. No stated cut-off is given here; in the data, active = GI50 up to about 1.1 µM and inactive = higher. Where a SMILES comes first, the peptide text is derived from it. [ ]: non-standard residue; d: D form. Hiv = CC(C)[C@H](O)C(=O)O

Key:
Assay in all cases: NCI-60 cell line screen, 48 h
A498 = system: A498
CAKI-1 = system: CAKI-1
DU-145 = system: DU-145
EKVX = system: EKVX
HCC 2998 = system: HCC 2998
Hs-578T = system: Hs-578T
KM12 = system: KM12
LOX IMVI = system: LOX IMVI
MCF7 = system: MCF7
MDA-MB-231 = system: MDA-MB-231
MDA-N = system: MDA-N
NCI-H226 = system: NCI-H226
NCI-H460 = system: NCI-H460
NCI/ADR-RES = system: NCI/ADR-RES
OVCAR-4 = system: OVCAR-4
PC-3 = system: PC-3
RXF 393 = system: RXF 393
SF-268 = system: SF-268
SNB-19 = system: SNB-19
SNB-75 = system: SNB-75

Measured: GI50

O=C1c2cccc(O)c2C(=O)c2c(OC3OC(CO)C(O)C(O)C3O)cccc21 (stereo not given)
inactive: A498 > 100 µM | CAKI-1 55.5 µM | DU-145 32.2 µM | EKVX 32.7 µM | HCC 2998 24.8 µM | Hs-578T 17.8 µM | KM12 30.3 µM | LOX IMVI 37.5 µM | MCF7 30.1 µM | MDA-MB-231 21.3 µM | MDA-N 28.6 µM | NCI-H226 > 100 µM | NCI-H460 17.9 µM | NCI/ADR-RES 17 µM | OVCAR-4 16.1 µM | PC-3 24.5 µM | RXF 393 26 µM | SF-268 22.9 µM | SNB-19 33.7 µM | SNB-75 24 µM

COC(=O)n1c(=O)n(-c2ccccc2)c(=O)n1C(=O)OC
inactive: A498 > 100 µM | CAKI-1 > 100 µM | DU-145 > 100 µM | EKVX > 100 µM | HCC 2998 > 100 µM | Hs-578T > 100 µM | KM12 > 100 µM | LOX IMVI > 100 µM | MCF7 > 100 µM | MDA-MB-231 > 100 µM | MDA-N > 100 µM | NCI-H226 > 100 µM | NCI-H460 > 100 µM | NCI/ADR-RES > 100 µM | OVCAR-4 > 100 µM | PC-3 > 100 µM | RXF 393 > 100 µM | SF-268 > 100 µM | SNB-19 > 100 µM | SNB-75 51.2 µM

O=c1c(Cc2ccc(Cl)cc2)nnc2sc(-c3ccc(-c4ccc(F)c(Cl)c4)o3)nn12
inactive: A498 42.2 µM | CAKI-1 43 µM | DU-145 > 100 µM | EKVX 24.5 µM | HCC 2998 > 100 µM | Hs-578T > 100 µM | KM12 91.2 µM | LOX IMVI 70.5 µM | MCF7 32.7 µM | MDA-MB-231 > 100 µM | MDA-N 95.3 µM | NCI-H226 > 100 µM | NCI-H460 55 µM | NCI/ADR-RES 56.9 µM | OVCAR-4 42.1 µM | PC-3 57.1 µM | RXF 393 > 100 µM | SF-268 76.6 µM | SNB-19 > 100 µM

COC(=O)/C(C#N)=C(/NCCN)Nc1ccccc1
inactive: A498 > 100 µM | CAKI-1 > 100 µM | DU-145 > 100 µM | EKVX > 100 µM | HCC 2998 > 100 µM | Hs-578T > 100 µM | LOX IMVI > 100 µM | MCF7 > 100 µM | MDA-MB-231 > 100 µM | MDA-N > 100 µM | NCI-H226 > 100 µM | NCI-H460 > 100 µM | NCI/ADR-RES > 100 µM | OVCAR-4 > 100 µM | PC-3 > 100 µM | RXF 393 > 100 µM | SF-268 > 100 µM | SNB-19 > 100 µM | SNB-75 57.3 µM

CC(C)[C@@H]1OC(=O)[C@@H](C)NC(=O)[C@@H]2CCCN2C1=O (cyclo([Hiv]-Pro-[dA]))
inactive: A498 > 100 µM | CAKI-1 > 100 µM | DU-145 > 100 µM | EKVX > 100 µM | HCC 2998 > 100 µM | Hs-578T > 100 µM | KM12 > 100 µM | LOX IMVI > 100 µM | MCF7 > 100 µM | MDA-MB-231 > 100 µM | MDA-N > 100 µM | NCI-H226 > 100 µM | NCI-H460 > 100 µM | NCI/ADR-RES > 100 µM | OVCAR-4 > 100 µM | PC-3 > 100 µM | RXF 393 > 100 µM | SF-268 > 100 µM | SNB-19 > 100 µM

CCOC(=O)C(NC(=O)CC(C)C)(NC(C)C)C(F)(F)F (stereo not given)
inactive: A498 > 100 µM | CAKI-1 > 100 µM | DU-145 > 100 µM | EKVX > 100 µM | HCC 2998 > 100 µM | Hs-578T > 100 µM | KM12 > 100 µM | LOX IMVI > 100 µM | MCF7 > 100 µM | MDA-MB-231 > 100 µM | MDA-N > 100 µM | NCI-H226 > 100 µM | NCI-H460 > 100 µM | NCI/ADR-RES > 100 µM | OVCAR-4 > 100 µM | PC-3 > 100 µM | RXF 393 > 100 µM | SF-268 > 100 µM | SNB-19 > 100 µM

CN(C)c1ncc(-c2c[nH]c3ccccc23)nc1-c1c[nH]c2ccccc12
inactive: A498 2.14 µM | CAKI-1 3.47 µM | DU-145 7.28 µM | EKVX 3.32 µM | HCC 2998 1.67 µM | Hs-578T 2.78 µM | KM12 2.19 µM | LOX IMVI 2.51 µM | MCF7 2.3 µM | MDA-MB-231 2.07 µM | MDA-N 2.08 µM | NCI-H460 2.12 µM | NCI/ADR-RES 9.95 µM | OVCAR-4 5.32 µM | PC-3 3.69 µM | RXF 393 1.96 µM | SF-268 10.6 µM | SNB-19 4.12 µM | SNB-75 1.15 µM
